The source of these data is patent US9168243B2, “Pharmaceutical compositions comprising 8-substituted dibenzylbutyrolactone lignans” (priority 2010, dated 2015).

The assay concerns insulin receptor (IR) β-subunit and IGF-I receptor (IGF-IR) β-subunit. Kind of assay: Immunoprecipitation of IRβ and IGF-IRβ after insulin or IGF-I stimulation, Western blot for phospho-tyrosine and PI3K p85α. In kind it is cell-based. As to conditions: serum-starved LNCaP; 40-100 μM NTG 2 hours before 10 nM insulin or IGF-I, 10 minutes. Here is the method:
The cells were treated with 0-100 μM lignans or solvent control for indicated times. Human recombinant isoleucin-zipper TRAIL (izTRAIL; kindly provided by Professor Henning Walczak) was used at 0-1 μg/ml with an incubation time of 20 hours. Prior to 10 minutes treatment with 10 nM IGF-1 (Millipore) or 10 nM insulin (Sigma) the cells were serum-starved (1% FCS) overnight. EGFR stimulation was performed on serum-starved cells with 20 ng/ml EGF for 5 minutes (a kind gift from Professor Klaus Elenius laboratory).
The cells cultured on […] were placed on ice and rinsed with cold PBS. The cells were lysed in 1 ml of cold lysis buffer (50 mM Tris pH 7.4, 150 mM NaCl, 1 mM EDTA, 1.25% CHAPS, 1 mM Na3OV4, 2 mM NaF, 10 mM sodium pyrophosphate and complete protease inhibitor cocktail [Roche Applied Science]) for 10 minutes. […]
To further investigate the specificity of this inhibitory effect, LNCaP cells were serum-starved overnight, treated with 0-100 μM NTG for 2 hours, and activated for 10 minutes with 10 nM insulin or IGF-I, after which insulin receptor (IR) β-subunit and IGF-I receptor (IGF-IR) β-subunit were immunoprecipitated (FIG. 5B). The precipitated complexes were analyzed by Western blotting for presence of PI3K p85α (85 kDa), IRβ (95 kDa), IGF-IRβ (95 kDa) and phospho-tyrosine and the expression of PI3K p85α, Akt and phospho-Akt(ser473) was probed from the lysates. […]
On the technique in general: Immunoblotting shows a protein as a band on a membrane.

Consider `COc1cc(CC2COC(=O)C2(O)Cc2ccc(O)c(OC)c2)ccc1O` (centres unmarked) [NTG, Nortrachelogenin], for which the “amount of receptor-associated PI3K p85” value is given as “clearly reduced”; the “receptor tyrosine phosphorylation of IR and IGF-IR” value was “decreased”.
